Measurements: patent publication US4349685A (priority 1981, dated 1982)

Assays:
[1] = system: causative organism of wheat leaf rust; assay: Control of wheat leaf rust by aqueous suspension of the compound; assay type: in vivo; settings: 300 parts per million by weight, sole compound
[2] = system: causative organism of downey mildew; assay: Control of downey mildew on host plants (root drench and foliar treatment); assay type: in vivo; settings: 500 parts per million by weight solution; root system application and foliar treatment of host plants
Excerpt: Solutions containing 500 parts per million by weight of the compound were formulated and applied to the host plants through two different modes of administration. First, the solution was applied to the root system of the host plants by drenching the chemicals into the pots or by placing the pots into larger cups containing the solution of the compound. Second, a foliar chemical treatment was applied to the host plants. The plants were then exposed to the pathogen and placed under conditions suitable for infection and development of the disease.

SMILES	kill of the causative organism of wheat leaf rust [1]	control of the causative organism of downey mildew [2]
CCC(=O)OCCNC(=O)Oc1ccc2oc(=O)sc2c1 [Example 1, 5-[2-(Propionyloxy)ethylcarbamoyloxy]-1,3-benzoxathiol-2-one]	substantially complete kill	–
CCc1cccc(NC(=O)Oc2ccc3oc(=O)sc3c2)c1 [Example 4, 5-[(3-Ethylphenyl)carbamoyloxy]-1,3-benzoxathiol-2-one]	–	90%
